Laboratory results reported in patent US8609620B2, “Neuregulin peptides and their use” (Zensun (Shanghai) Science & Technology Ltd., priority 2008, dated 2013).

Experiments:
[1] = tested on: AKT phosphorylation in cardiomyocytes; test: Effect of neuregulin peptides on the phosphorylation of AKT in cardiomyocytes (western blot); type: cell-based, rat; conditions: cardiac cells from left ventricles of neonatal rats, different concentrations, 20 minutes, FIG. 1
Description: To study the effect of synthesized peptides on ErbB2 and ErbB4 signaling in cardiomyocytes, cardiac cells extracted from left ventricles of neonatal rats were used.
Cardiac cells were grown in media with serum for 2 days. After the cells reached about 80% confluence, the media was changed to serum free media. After another 24 hours, different amounts of synthesized neuregulin peptides or neuregulin were added into separate wells containing the cells for 20 minutes. The media was then aspirated and gel loading buffer was added to lyse the cells. The sample was then harvested and loaded into a separate well of gel for electrophoresis and western blot analysis.

ErbB2 receptor = biological target: T1, ErbB2 receptor (Homo sapiens, UniProt P04626+P21860); test: Receptor binding: neuregulin-induced ErbB2 phosphorylation in MCF-7 cells (ErbB2 antibody H4 capture, anti-phosphotyrosine ELISA); type: cell-based; conditions: 20 min at 37° C., concentration achieving 50% of maximum OD value at 450 nm
T1 construct: endogenous in cells; host or cells: MCF-7
Description: Briefly, the assay measures neuregulin induced ErbB2 activation and phosphorylation on the adherent breast carcinoma cell line, MCF-7. Membrane proteins are solubilized via Triton X-100 lysis and the receptor is captured in ELISA wells coated with ErbB2-specific antibodies (e.g., H4) with no cross-reaction to ErbB3 or ErbB4. The degree of receptor phosphorylation is then quantified by antiphosphotyrosine ELISA.
MCF-7 cells was harvested, counted, pelleted and resuspended into DMEM (with 10% serum and 9 μg/ml insulin) at 5×10^4 cells/ml. 100 μl cell suspension was added to each well of 96 well plate and the plate was incubated at 37° C. overnight. The cells were then washed 3 times with PBS and grew in serum free DMEM for another 24 hours.
ErbB2 antibody H4 (Zensun, anti-ErbB2 monoclonal antibody) was diluted to 6 μg/ml by coating buffer (50 mM Na2CO3—NaHCO3, pH9.6), and added to 96 well plate 50 μl/well. The plate was left at 4° C. overnight to coat with antibody.
DMEM was added to two wells as blank. The plate was incubated at 37° C. for 20 min. The cells were washed once with PBS before adding 100 μl/well lysis buffer (50 mM Hepes, pH 8.0, 150 mM NaCl, 2 mM sodium orthovanadate, 0.01% thimerosal, 1% Triton X-100 and one protease inhibitor cocktail tablet per 25 ml solution) and lysing at 4° C. for 30 min. […]

CSCC[C@@H]1NC(=O)[C@H](Cc2ccccc2)NC(=O)[C@@H]2CSSC[C@H](NC(=O)[C@H](CCCCN)NC(=O)[C@@H](NC(=O)[C@H](CC(C)C)NC(=O)[C@H](Cc3c[nH]cn3)NC(=O)[C@@H](N)CO)C(C)C)C(=O)N[C@@H](C)C(=O)N[C@@H](CCC(=O)O)C(=O)N[C@@H](CCCCN)C(=O)N[C@@H](CCC(=O)O)C(=O)N[C@@H](CCCCN)C(=O)N[C@@H]([C@@H](C)O)C(=O)N[C@@H](Cc3ccccc3)C(=O)N[C@@H](CSSC[C@@H](C(=O)N[C@@H](CCCCN)C(=O)N[C@H]3CSSC[C@@H](C(=O)N[C@@H](CCC(N)=O)C(=O)N[C@@H](CC(N)=O)C(=O)N[C@@H](Cc4ccc(O)cc4)C(=O)N[C@H](C(=O)N[C@@H](CCSC)C(=O)N[C@@H](C)C(=O)N[C@@H](CO)C(=O)N[C@@H](Cc4ccccc4)C(=O)N[C@@H](Cc4ccc(O)cc4)C(=O)N[C@@H](CCCCN)C(=O)O)C(C)C)NC(=O)[C@H](CCCNC(=N)N)NC(=O)[C@H](CC(=O)O)NC(=O)CNC(=O)[C@H]([C@@H](C)O)NC(=O)[C@H](Cc4ccccc4)NC(=O)[C@H](CCC(=O)O)NC(=O)[C@H](CC(N)=O)NC(=O)[C@@H]4CCCN4C3=O)NC(=O)[C@H](CC(C)C)NC(=O)[C@H](Cc3ccc(O)cc3)NC(=O)[C@H](CCCNC(=N)N)NC(=O)[C@H](CO)NC(=O)[C@@H]3CCCN3C(=O)[C@H](CC(N)=O)NC(=O)[C@H](CO)NC(=O)[C@H](CC(C)C)NC(=O)[C@H](CC(=O)O)NC(=O)[C@H](CCCCN)NC(=O)[C@H](C(C)C)NC1=O)C(=O)N[C@@H](C(C)C)C(=O)N[C@@H](CC(N)=O)C(=O)NCC(=O)NCC(=O)N[C@@H](CCC(=O)O)C(=O)N2 [NRG55]
effect on AKT phosphorylation compared with NRG [1]: much stronger effect than NRG

CSCC[C@@H]1NC(=O)[C@H](Cc2ccccc2)NC(=O)[C@@H]2CSSC[C@H](NC(=O)[C@H](CCCCN)NC(=O)[C@@H](NC(=O)[C@H](CC(C)C)NC(=O)[C@H](Cc3c[nH]cn3)NC(=O)[C@@H](N)CO)C(C)C)C(=O)N[C@@H](C)C(=O)N[C@@H](CCC(=O)O)C(=O)N[C@@H](CCCCN)C(=O)N[C@@H](CCC(=O)O)C(=O)N[C@@H](CCCCN)C(=O)N[C@@H]([C@@H](C)O)C(=O)N[C@@H](Cc3ccccc3)C(=O)N[C@@H](CSSC[C@@H](C(=O)N[C@@H](CCCCN)C(=O)N[C@H]3CSSC[C@@H](C(=O)N[C@@H](CCC(N)=O)C(=O)N[C@@H](CC(N)=O)C(=O)N[C@@H](Cc4ccc(O)cc4)C(=O)N[C@H](C(=O)N[C@@H](CCSC)C(=O)N[C@@H](C)C(=O)N[C@@H](CO)C(=O)N[C@@H](Cc4ccccc4)C(=O)N[C@@H](Cc4ccc(O)cc4)C(=O)N[C@@H](CCCCN)C(=O)N[C@@H](C)C(=O)N[C@@H](CCC(=O)O)C(=O)O)C(C)C)NC(=O)[C@H](CCCNC(=N)N)NC(=O)[C@H](CC(=O)O)NC(=O)CNC(=O)[C@H]([C@@H](C)O)NC(=O)[C@H](Cc4ccccc4)NC(=O)[C@H](CCC(=O)O)NC(=O)[C@H](CC(N)=O)NC(=O)[C@@H]4CCCN4C3=O)NC(=O)[C@H](CC(C)C)NC(=O)[C@H](Cc3ccc(O)cc3)NC(=O)[C@H](CCCNC(=N)N)NC(=O)[C@H](CO)NC(=O)[C@@H]3CCCN3C(=O)[C@H](CC(N)=O)NC(=O)[C@H](CO)NC(=O)[C@H](CC(C)C)NC(=O)[C@H](CC(=O)O)NC(=O)[C@H](CCCCN)NC(=O)[C@H](C(C)C)NC1=O)C(=O)N[C@@H](C(C)C)C(=O)N[C@@H](CC(N)=O)C(=O)NCC(=O)NCC(=O)N[C@@H](CCC(=O)O)C(=O)N2 [NRG57]
effect on AKT phosphorylation compared with NRG [1]: almost have the same effect as NRG

CSCC[C@@H]1NC(=O)[C@H](Cc2ccccc2)NC(=O)[C@@H]2CSSC[C@H](NC(=O)[C@H](CCCCN)NC(=O)[C@@H](NC(=O)[C@H](CC(C)C)NC(=O)[C@H](Cc3c[nH]cn3)NC(=O)[C@@H](N)CO)C(C)C)C(=O)N[C@@H](C)C(=O)N[C@@H](CCC(=O)O)C(=O)N[C@@H](CCCCN)C(=O)N[C@@H](CCC(=O)O)C(=O)N[C@@H](CCCCN)C(=O)N[C@@H]([C@@H](C)O)C(=O)N[C@@H](Cc3ccccc3)C(=O)N[C@@H](CSSC[C@@H](C(=O)N[C@@H](CCCCN)C(=O)N[C@H]3CSSC[C@@H](C(=O)N[C@@H](CCC(N)=O)C(=O)N[C@@H](CC(N)=O)C(=O)N[C@@H](Cc4ccc(O)cc4)C(=O)N[C@H](C(=O)N[C@@H](CCSC)C(=O)N[C@@H](C)C(=O)N[C@@H](CO)C(=O)N[C@@H](Cc4ccccc4)C(=O)N[C@@H](Cc4ccc(O)cc4)C(=O)N[C@@H](CCCCN)C(=O)N[C@@H](C)C(=O)N[C@@H](CCC(=O)O)C(=O)N[C@@H](CCC(=O)O)C(=O)N[C@@H](CC(C)C)C(=O)O)C(C)C)NC(=O)[C@H](CCCNC(=N)N)NC(=O)[C@H](CC(=O)O)NC(=O)CNC(=O)[C@H]([C@@H](C)O)NC(=O)[C@H](Cc4ccccc4)NC(=O)[C@H](CCC(=O)O)NC(=O)[C@H](CC(N)=O)NC(=O)[C@@H]4CCCN4C3=O)NC(=O)[C@H](CC(C)C)NC(=O)[C@H](Cc3ccc(O)cc3)NC(=O)[C@H](CCCNC(=N)N)NC(=O)[C@H](CO)NC(=O)[C@@H]3CCCN3C(=O)[C@H](CC(N)=O)NC(=O)[C@H](CO)NC(=O)[C@H](CC(C)C)NC(=O)[C@H](CC(=O)O)NC(=O)[C@H](CCCCN)NC(=O)[C@H](C(C)C)NC1=O)C(=O)N[C@@H](C(C)C)C(=O)N[C@@H](CC(N)=O)C(=O)NCC(=O)NCC(=O)N[C@@H](CCC(=O)O)C(=O)N2 [NRG59]
effect on AKT phosphorylation compared with NRG [1]: almost have the same effect as NRG

B1: SHLVKCAEKEKTFCVNGGECFMVKDLSNPSRYLCKCPNEFTGDRCQNYVMASFYKAEELYQ (protein)
chain: SHLVKCAEKEKTFCVNGGECFMVKDLSNPSRYLCKCPNEFTGDRCQNYVMASFYKAEELYQ
modifications: chains of the parent or of the whole protein
EC50 (ErbB2 receptor): 1.439 µg/mL

B2: NRG: full length wild type neuregulin β2 peptide (protein)
chain: SHLVKCAEKEKTFCVNGGECFMVKDLSNPSRYLCKCPNEFTGDRCQNYVMASFYKAEELYQ
EC50 (ErbB2 receptor): 0.2772 µg/mL
